Results published in PubChem BioAssay AID330 (DTP/NCI, 2004).
“And” between values parts separate entries of the source, which are not always exact repeats. Equal entries are not always repeated. Inconclusive results and toxic doses are left out. Rule for the calls: active = survival T/C of 150% or more; inactive = T/C below 125% in these data.

Test system: P388 leukemia ip, CD2F1 mice, survival T/C
Assay: NCI In Vivo Anticancer Drug Screen. Data for tumor model P388 Leukemia (intraperitoneal) in CD2F1 (CDF1) mice
Details: endpoint: median survival time, higher = longer survival
Outline: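 Mice carrying the transplanted tumor received test compound or vehicle. Survival was recorded in each group, and the value is the treated-group measurement divided by that of the vehicle-treated control group.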

[1] = dose: 60.0 mg/kg/injection, schedule: Q01DX005 (ip), vehicle: saline with Tween-80
[2] = dose: 120.0 mg/kg/injection, schedule: Q01DX005 (ip), vehicle: saline with Tween-80
[3] = dose: 50.0 mg/kg/injection, schedule: Q01DX009 (ip), vehicle: saline with Tween-80
[4] = dose: 100.0 mg/kg/injection, schedule: Q01DX009 (ip), vehicle: saline with Tween-80
[5] = dose: 200.0 mg/kg/injection, schedule: Q01DX009 (ip), vehicle: saline with Tween-80
[6] = dose: 400.0 mg/kg/injection, schedule: Q01DX009 (ip), vehicle: saline with Tween-80
[7] = dose: 240.0 mg/kg/injection, schedule: Q01DX005 (ip), vehicle: saline with Tween-80
[8] = dose: 12.5 mg/kg/injection, schedule: Q01DX009 (ip), vehicle: saline with Tween-80
[9] = dose: 25.0 mg/kg/injection, schedule: Q01DX009 (ip), vehicle: saline with Tween-80
[10] = dose: 50.0 mg/kg/injection, schedule: Q01DX005 (ip), vehicle: saline with Tween-80
[11] = dose: 100.0 mg/kg/injection, schedule: Q01DX005 (ip), vehicle: saline with Tween-80
[12] = dose: 200.0 mg/kg/injection, schedule: Q01DX005 (ip), vehicle: saline with Tween-80
[13] = dose: 50.0 mg/kg/injection, schedule: Q01DX009 (ip), vehicle: saline
[14] = dose: 100.0 mg/kg/injection, schedule: Q01DX009 (ip), vehicle: saline
[15] = dose: 200.0 mg/kg/injection, schedule: Q01DX009 (ip), vehicle: saline
[16] = dose: 50.0 mg/kg/injection, schedule: Q01DX009 (ip), vehicle: Klucel (hydroxypropylcellulose) (HPC)
[17] = dose: 100.0 mg/kg/injection, schedule: Q01DX009 (ip), vehicle: Klucel (hydroxypropylcellulose) (HPC)
[18] = dose: 200.0 mg/kg/injection, schedule: Q01DX009 (ip), vehicle: Klucel (hydroxypropylcellulose) (HPC)

Measured: T/C

CCOC(=O)c1cc(/C=C/c2ccc(Cl)cc2)on1
inactive: [1] 91 % of control | [2] 90 % of control

O=C(O)c1ccc(N2N=C3C(=CC(=O)c4ccccc43)SCC2=O)cc1
inactive: dose: 12.5 mg/kg/injection, schedule: Q01DX005 (ip), vehicle: saline + Tween-80 + alcohol 97 % of control | dose: 25.0 mg/kg/injection, schedule: Q01DX005 (ip), vehicle: saline + Tween-80 + alcohol 112 % of control

CCC(=O)C[N+]12CCN(CC1)CC2
inactive: dose: 25.0 mg/kg/injection, schedule: Q04DX002 (ip), vehicle: Klucel (hydroxypropylcellulose) (HPC) 105 % of control | dose: 50.0 mg/kg/injection, schedule: Q04DX002 (ip), vehicle: Klucel (hydroxypropylcellulose) (HPC) 104 % of control

CCCCC(SC(CC)(C(C)=O)c1ccccc1)C(N)=O (centres undefined)
inactive: [3] 91 % of control | [4] 90 % of control | [5] 88 % of control | [6] 90 % of control

Cc1onc(-c2c(F)cccc2Cl)c1-c1ncc(-c2ccc(Br)cc2)o1
inactive: [1] 100 % of control | [2] 104 % of control | [7] 101 % of control

C[C@H]1C[C@H]2[C@@H]3CC[C@](O)(C(=O)CO)[C@@]3(C)C[C@H](O)[C@]2(F)[C@@]2(C)C=CC(=O)C=C12
inactive: [8] 95 % of control | [9] 104 % of control | [3] 104 % of control | dose: 100.0 mg/kg/injection, schedule: Q04DX003 (ip), vehicle: saline with Tween-80 109 % of control | dose: 200.0 mg/kg/injection, schedule: Q04DX003 (ip), vehicle: saline with Tween-80 109 % of control | dose: 400.0 mg/kg/injection, schedule: Q04DX003 (ip), vehicle: saline with Tween-80 90 % of control

O=C(CC1(O)C(=O)Nc2ccccc21)c1ccc(Br)cc1 (centres undefined)
inactive: [10] 108 % of control | [11] 103 % of control | [12] 100 % of control

CCOC(=O)c1c(C)c2c(n1C)CCC(C(=O)OCC)C2=O (centres undefined)
inactive: dose: 50.0 mg/kg/injection, schedule: Q04DX003 (ip), vehicle: Klucel (hydroxypropylcellulose) (HPC) 107 % of control | dose: 100.0 mg/kg/injection, schedule: Q04DX003 (ip), vehicle: Klucel (hydroxypropylcellulose) (HPC) 100 % of control | dose: 200.0 mg/kg/injection, schedule: Q04DX003 (ip), vehicle: Klucel (hydroxypropylcellulose) (HPC) 91 % of control

COc1ccc(CS(=O)CC(N)C(=O)O)cc1 (centres undefined)
inactive: dose: 100.0 mg/kg/injection, schedule: Q04DX002 (ip), vehicle: saline with Tween-80 98 % of control | dose: 200.0 mg/kg/injection, schedule: Q04DX002 (ip), vehicle: saline with Tween-80 104 % of control | dose: 400.0 mg/kg/injection, schedule: Q04DX002 (ip), vehicle: saline with Tween-80 86 % of control

O=C1C=CC(=O)N1c1ccc2c(c1)oc(=O)c1ccccc12
inactive: dose: 12.5 mg/kg/injection, schedule: Q01DX009 (ip), vehicle: saline 95 % of control | dose: 25.0 mg/kg/injection, schedule: Q01DX009 (ip), vehicle: saline 92 % of control | [13] 90 % of control | [14] 100 % of control | [15] 99 % of control | dose: 400.0 mg/kg/injection, schedule: Q01DX009 (ip), vehicle: saline 110 % of control

CCOC(=O)C(SC(Cl)(S(=O)(=O)c1ccccc1)S(=O)(=O)c1ccccc1)C(=O)OCC
inactive: dose: 25.0 mg/kg/injection, schedule: Q01DX009 (ip), vehicle: Klucel (hydroxypropylcellulose) (HPC) 105 % of control and 109 % of control | [16] 116 % of control and 120 % of control and 121 % of control | [17] 115 % of control and 116 % of control and 124 % of control | [18] 110 % of control and 120 % of control and 121 % of control | dose: 400.0 mg/kg/injection, schedule: Q01DX009 (ip), vehicle: Klucel (hydroxypropylcellulose) (HPC) 109 % of control

C=C1[C@@]2(O)CCCC[C@@H]2C[N+]1(C)C
inactive: [13] 91 % of control | [14] 90 % of control | [15] 95 % of control

CS(=O)CCCC#N (centres undefined)
inactive: dose: 18.75 mg/kg/injection, schedule: Q01DX009 (ip), vehicle: saline with Tween-80 115 % of control | dose: 37.5 mg/kg/injection, schedule: Q01DX009 (ip), vehicle: saline with Tween-80 100 % of control | dose: 75.0 mg/kg/injection, schedule: Q01DX009 (ip), vehicle: saline with Tween-80 110 % of control | dose: 150.0 mg/kg/injection, schedule: Q01DX009 (ip), vehicle: saline with Tween-80 100 % of control | dose: 300.0 mg/kg/injection, schedule: Q01DX009 (ip), vehicle: saline with Tween-80 105 % of control

CCN(CC)Cc1cc(N=Nc2ccc(-c3ccc(N)c(OC)c3)cc2OC)c2ccccc2c1O
inactive: [16] 92 % of control | [17] 99 % of control | [18] 93 % of control

Clc1cccc2nn3ccnc3n12
inactive: dose: 50.0 mg/kg/injection, schedule: Q01DX001 (ip), vehicle: Klucel (hydroxypropylcellulose) (HPC) 105 % of control | dose: 100.0 mg/kg/injection, schedule: Q01DX001 (ip), vehicle: Klucel (hydroxypropylcellulose) (HPC) 99 % of control | dose: 200.0 mg/kg/injection, schedule: Q01DX001 (ip), vehicle: Klucel (hydroxypropylcellulose) (HPC) 102 % of control

CC(C)c1cccc(C(C)C)c1NC(=O)N1CCCCC1
inactive: [1] 99 % of control | [2] 93 % of control | [7] 100 % of control

CCCCCCCCCCCCCCCCOP(=O)([O-])OCC[N+](C)(C)C
inactive: dose: 15.0 mg/kg/injection, schedule: Q01DX005 (ip), vehicle: saline 100 % of control | dose: 30.0 mg/kg/injection, schedule: Q01DX005 (ip), vehicle: saline 100 % of control | dose: 60.0 mg/kg/injection, schedule: Q01DX005 (ip), vehicle: saline 102 % of control and 103 % of control

CCOC(=O)C1=C(Nc2ccc(OC)cc2)C(N)=NC1=N
inactive: dose: 6.25 mg/kg/injection, schedule: Q01DX009 (ip), vehicle: suspension in saline 100 % of control | dose: 12.5 mg/kg/injection, schedule: Q01DX009 (ip), vehicle: suspension in saline 102 % of control and 110 % of control | dose: 25.0 mg/kg/injection, schedule: Q01DX009 (ip), vehicle: suspension in saline 106 % of control and 117 % of control | dose: 50.0 mg/kg/injection, schedule: Q01DX009 (ip), vehicle: suspension in saline 102 % of control and 121 % of control | dose: 100.0 mg/kg/injection, schedule: Q01DX009 (ip), vehicle: suspension in saline 92 % of control

O=C1N(c2ccccc2)C(=Nc2ccccc2)C(=Nc2ccccc2)N1c1ccccc1
inactive: dose: 50.0 mg/kg/injection, schedule: Q01DX005 (ip), vehicle: Klucel + Tween-80 96 % of control | dose: 100.0 mg/kg/injection, schedule: Q01DX005 (ip), vehicle: Klucel + Tween-80 91 % of control | dose: 200.0 mg/kg/injection, schedule: Q01DX005 (ip), vehicle: Klucel + Tween-80 92 % of control

CC(=O)NC(CS)C(=O)O (centres undefined)
inactive: [13] 111 % of control and 88 % of control | [14] 103 % of control and 104 % of control and 111 % of control | [15] 99 % of control (2×) and 109 % of control

Cc1nc(-c2ccccc2-n2cccc2)no1
inactive: [3] 104 % of control | [4] 102 % of control

CN(C)c1ccc(C(=O)c2ccc(N(C)C)cc2)cc1
inactive: [4] 100 % of control | [5] 112 % of control | [6] 116 % of control

Nc1ncccc1O
inactive: dose: 2.5 mg/kg/injection, schedule: Q01DX009 (ip), vehicle: saline 104 % of control | dose: 5.0 mg/kg/injection, schedule: Q01DX009 (ip), vehicle: saline 97 % of control | dose: 10.0 mg/kg/injection, schedule: Q01DX009 (ip), vehicle: saline 96 % of control | dose: 20.0 mg/kg/injection, schedule: Q01DX009 (ip), vehicle: saline 110 % of control | dose: 40.0 mg/kg/injection, schedule: Q01DX009 (ip), vehicle: saline 107 % of control

O=C1OP2(c3ccccc3)(OC(=O)c3ccccc32)c2ccccc21
inactive: [8] 98 % of control and 94 % of control | [9] 99 % of control and 92 % of control | [3] 90 % of control and 95 % of control | [4] 95 % of control | [5] 88 % of control

C=C(C)C(=O)OCCN(C)C (tested in a mixture with another compound)
inactive: [3] 100 % of control | [4] 100 % of control | [5] 100 % of control

O=C(CNC(=O)Nc1cccc([N+](=O)[O-])c1)NNC(=O)Nc1ccccc1F
inactive: [1] 101 % of control | [2] 101 % of control | [7] 99 % of control

COC(=O)C1=C2\c3cc4c(cc3CCN2C(=O)c2ccc(OC)c(OC)c2/C(OC)=C\1)OCO4
inactive: [10] 93 % of control | [11] 90 % of control | [12] 90 % of control
